{
  "source": "paper PMC4526366",
  "about": "(PLoS ONE, 2015)",
  "key": {"[1]": {"molecular_target": "T1, α-thrombin (Homo sapiens, UniProt P00734)", "T1 construct": "purchased Sigma; Haematologic Technologies; or prepared in house from prothrombin (Enzyme Research Laboratories) with Oxyuranus scutellatus venom", "experiment": "Inhibition of thrombin-mediated hydrolysis of S2238", "assay_type": "biochemical", "description": "[…] Reactions were started by addition of thrombin (0.5 nM) and absorbance was monitored for 10 minutes at 405 nm in a microplate reader. The data were fit to competitive or non-competitive models of inhibition using GraphPad Prism 5. In both cases, nonlinear regression was used to fit to the hyperbolic equation: v=Vmaxapp [S]/(Kmapp+[S]) In the case of competitive inhibition Vmaxapp = Vmax and in the case of noncompetitive inhibition Kmapp = Km.\nIn the case of competitive inhibition the inhibition constant (Ki) was obtained from fitting of: Kmapp = Km(1+[I]/Ki) .\nFor noncompetitive inhibition Ki was determined by fitting of: Vmaxapp = Vmax/(1+[I]/Ki)\nThe experiments were repeated three times."}, "[2]": {"molecular_target": "T2, thrombin (Homo sapiens, UniProt P00734)", "conditions": "2 h, 37°C, TBS pH 7.4, MALDI MS; for cleavage by thrombin (peptide remaining / digestion): 25 μM peptide, 1 μM thrombin (25:1)", "description": "Reactions were stopped by freezing at –20°C until analysis. Samples (2 μl) were desalted in C-8 micro-columns (Ziptip-Milipore), washing 3 times with 0.1% TFA and eluting with 60% acetonitrile in water. Washes were diluted with 4 μl 50% acetonitrile and spotted (0.5–1 μl) on MALDI plates followed by addition of matrix solution. After drying, they were injected into the MS instrument and analyzed in reflectron (peptide plus thrombin) or linear (peptide alone) mode."}, "[3]": {"molecular_target": "T1, α-thrombin", "experiment": "Surface plasmon resonance, thrombin binding to immobilized peptide", "conditions": "150 mM NaCl", "description": "Surface plasmon resonance (SPR) was used to measure interaction between immobilized peptides and thrombin using a Biacore T100 instrument. Approximately 500 resonance units of hyalomin-1 biotinylated at Lys1 or its N-terminal cleavage product (01–41) were bound to a neutravidin surface that had been immobilized on C5 chips using the amine coupling procedure. Kinetic measurements were carried out by injecting different concentrations of thrombin in 10 mM HEPES pH 7.4, 150 mM NaCl, 0.05%Tween-20. The chip surface was regenerated using injections of 10 mM glycine pH 2.5. Data were analyzed by global fitting of a 1:1 single state model using the Biacore T100 evaluation software. Binding of γ-thrombin with the same surface was also investigated under similar conditions."}, "[4]": {"molecular_target": "T2, thrombin", "experiment": "biochemical", "experimental": "Inhibition of thrombin-mediated activation of FXI in the presence of long-chain (P700) polyphosphate (polyP) was done in according to Choi et al. [17] by adding 2 μM of polyP to buffer (20 mM Tris HCl, pH 7.4, 150 mM NaCl and 0.1% BSA) followed by different concentrations of peptide (23.4 nM to 600 nM). α-Thrombin (5 nM) and 60 nM of FXI were then added and samples were incubated at 37°C for 35 minutes. Reactions were stopped with 50 nM of the thrombin inhibitor anophelin [18, 19] and polybrene to dissociate complexes with polyP. S2236 (Chromogenix Inc.) was added to a concentration of 250 μM and product formed was read as absorbance at 405 nm for 5–10 minutes in a microplate reader. Results were expressed as the percentage of the maximum activity (mAU/min) in the absence of peptide. Experiments were performed in duplicate."}, "[5]": {"test_system": "BALB/c mice", "conditions": "2.5 mg/kg intravenous, tail transection after 15 min, hemoglobin by absorbance at 540", "experimental": "Briefly, BALB/c mice were anesthetized (xylazine and ketamine) and the common carotid artery was isolated for measuring blood flow continuously using a 0.5-V Doppler flow probe coupled to a TS420 flow meter (Thransonic Systems, Ithaca, NY) [21]. Before induction of thrombosis the tail vein was injected with 50 μl of hyalomin-1 (1 and 2.5 mg/kg) or vehicle (PBS). Thrombi were formed by placing a piece of filter paper (1 x 2 mm) saturated with 7.5% FeCl3 on the adventitial surface or the artery for 3 minutes. After washing with normal saline, blood flow was continuously monitored for 60 minutes or until the blood flow dropped to zero for at least 10 seconds. Tail bleeding was performed on anesthetized mice injected intravenously with peptide (2.5 mg/kg) or vehicle alone (PBS) in 100 μl. After 15 minutes, the distal 2 mm segment was removed and the tail was immersed in 40 ml distilled 37°C warmed water. Absorbance at 540 was measured to estimate hemoglobin content."}, "[6]": {"molecular_target": "T3, thrombin (α-thrombin) (Homo sapiens, UniProt P00734)", "T3 construct": "purchased Sigma; Haematologic Technologies; or prepared in house from prothrombin (Enzyme Research Laboratories) with Oxyuranus scutellatus venom", "experiment": "Screening for inhibition of serine proteases (fluorogenic substrate hydrolysis)", "assay_type": "biochemical", "conditions": "1 μM peptide, pre-incubated 30°C 10 min, mean of three independent experiments in triplicate", "experimental": "Linear fits of fluorescence increases as a function of time were verified with the Magellan—Data Analysis Software (Tecan group Ltd), and the slope in arbitrary fluorescence units per second (r^2 > 0.95) was used to calculate hydrolysis rate. Each experiment was performed in triplicate and the mean and standard error of three independent experiments were calculated. The substrate hydrolysis rate in the absence of the peptide was considered as 100% and compared with the remaining enzymatic activity in the presence of the peptide."}, "[7]": {"test_system": "thrombin (α-thrombin)", "experiment": "thrombin at 1 μM in 1X TBS (10 X dilution of 10 X TBS pH 7.4)", "conditions": "37°C, up to 2 hours"}, "[8]": {"test_system": "thrombin", "conditions": "cited from earlier work"}, "[9]": {"test_system": "factor Xa", "conditions": "cited from earlier work"}, "[10]": {"conditions": "150 mM NaCl, 0.5 nM thrombin, 37°C, pH 7.4, three experiments, read-out: inhibition constant (Ki), competitive model"}},
  "note": "“Also recorded” adds a separate entry of the source. Read-outs that look alike come from different tables or passages of the source. Where a SMILES comes first, the peptide text is derived from it. Where no end group is shown, it is not given here.",
  "data": [
    {"compound": "CC[C@H](C)[C@H](NC(=O)[C@H](CCCNC(=N)N)NC(=O)[C@H](CCC(=O)O)NC(=O)[C@H](CO)NC(=O)[C@H](CC(=O)O)NC(=O)[C@H](CCCNC(=N)N)NC(=O)CNC(=O)[C@H](CO)NC(=O)CNC(=O)[C@@H]1CCCN1C(=O)[C@@H](NC(=O)[C@@H]1CCCN1C(=O)[C@H](CC(C)C)NC(=O)[C@H](CCCNC(=N)N)NC(=O)[C@@H]1CCCN1C(=O)[C@H](CCCCN)NC(=O)[C@H](C)NC(=O)[C@@H]1CCCN1C(=O)[C@@H](N)CCC(=O)O)C(C)C)C(=O)N1CCC[C@H]1C(=O)N[C@H](C(=O)N1CCC[C@H]1C(=O)N[C@H](C(=O)N[C@@H](CC(=O)O)C(=O)O)C(C)C)C(C)C", "note": "[36–59] (H-EPAKPRLPVPGSGRDSERIPVPVD-OH)", "values": [
      {"measurement": "Ki", "setting": "[1]; [10]", "value": "0.1 ± 0.002", "unit": "µM"},
      {"measurement": "Ki", "setting": "[1]; salt concentration 50 mM, read-out: Ki, competitive model", "value": "0.18 ± 0.03", "unit": "µM"},
      {"measurement": "cleavage in thrombin-free control", "setting": "[2]; 25 μM peptide without thrombin", "value": "no cleavage"},
      {"measurement": "cleavage by thrombin (peptide remaining / digestion)", "setting": "[2]", "value": "complete digestion"}
    ]},
    {"compound": "CC[C@H](C)[C@H](NC(=O)[C@H](CCCNC(=N)N)NC(=O)[C@H](CCC(=O)O)NC(=O)[C@H](CO)NC(=O)[C@H](CC(=O)O)NC(=O)[C@H](CCCNC(=N)N)NC(=O)CNC(=O)[C@H](CO)NC(=O)CNC(=O)[C@@H]1CCCN1C(=O)[C@@H](NC(=O)[C@@H]1CCCN1C(=O)[C@@H](N)CC(C)C)C(C)C)C(=O)N1CCC[C@H]1C(=O)N[C@H](C(=O)N1CCC[C@H]1C(=O)N[C@H](C(=O)N[C@@H](CC(=O)O)C(=O)O)C(C)C)C(C)C", "note": "[42–59] (H-LPVPGSGRDSERIPVPVD-OH)", "values": [
      {"measurement": "Ki", "setting": "[1]; ionic strength 150 mM, read-out: Ki, non-competitive model", "value": "1.7 ± 0.1", "unit": "µM"},
      {"measurement": "Ki", "setting": "[1]; salt concentration 50 mM, read-out: Ki, non-competitive model", "value": "1.8 ± 0.1", "unit": "µM"}
    ]},
    {"compound": "KPNLQSRSDDGVDESDYDTYPDDNNDDSGERNGGSEPAKPRLPVPGSGRDSERIPVPVD [hyalomin-1]", "values": [
      {"measurement": "Kd", "setting": "[3]; SPR, immobilized biotinylated peptide, read-out: calculated dissociation equilibrium constant (KD)", "value": 0.019, "unit": "µM"},
      {"measurement": "kon", "setting": "[3]; peptide biotinylated at N-terminal lysine on neutravidin surface, pH 7.4, 1:1 model, read-out: association rate constant (ka)", "value": "1e+06", "unit": "M⁻¹ s⁻¹"},
      {"measurement": "koff", "setting": "[3]; peptide biotinylated at N-terminal lysine on neutravidin surface, pH 7.4, 1:1 model, read-out: dissociation rate constant (kd)", "value": 0.02, "unit": "s⁻¹"},
      {"measurement": "Ki", "setting": "[1]; 50 mM salt, 0.5 nM thrombin, 37°C, read-out: inhibition constant (Ki), competitive model", "value": "0.0004 ± 0.0001", "unit": "µM"},
      {"measurement": "Ki", "setting": "[1]; [10]", "value": "0.0119 ± 0.0018", "unit": "µM"},
      {"measurement": "potency of the inhibitor over incubation time with thrombin", "setting": "[1]; 800:1 peptide to enzyme (400 nM peptide, 0.5 nM thrombin), 37°C, six hour incubation, 50 μM S2238", "value": "diminished in a time-dependent manner"},
      {"measurement": "IC50", "setting": "[4]", "value": "~0.025", "unit": "µM"},
      {"measurement": "tail bleeding", "setting": "[5]", "value": "significant bleeding"},
      {"measurement": "cleavage by thrombin (peptide remaining / digestion)", "setting": "[2]", "value": "No full-length peptide"},
      {"measurement": "loss of thrombin control activity in the presence of the peptide", "setting": "[6]", "value": 72, "unit": "%"}
    ]},
    {"compound": "EPAKPRLPVPGSGRDSERIPVPVD", "values": [
      {"measurement": "cleaved bond", "setting": "[7]", "value": "Arg41-Leu42, two hours"}
    ]},
    {"compound": "YPERDSAKEGNQEQERALHVKVQKRTDGDADYDEYEEDGTTPTPDPTAPTAKPRLRGNKP", "values": [
      {"measurement": "cleaved bond", "setting": "[8]", "value": "Arg54-Leu55; also recorded: cleaved upstream of this site at Lys21"},
      {"measurement": "cleaved bond", "setting": "[9]", "value": "cleaved by factor Xa at Arg25; also recorded: cleaved by factor Xa at Arg54; also recorded: cleaved by factor Xa at Arg16"}
    ]},
    {"compound": "DESDYDTYPDDNNDDSGERNGGSEPAKPRLPV [hyalomin (13–44) sulfated]", "values": [
      {"measurement": "cleaved bond", "setting": "[7]", "value": "Arg41-Leu42"}
    ]},
    {"compound": "DESDYDTYPDDNNDDSGERNGGSEPAKPRLPV [hyalomin-1 (13–44)]", "values": [
      {"measurement": "cleaved bond", "setting": "[7]", "value": "Arg41-Leu42, 2 hr"}
    ]},
    {"compound": "YPERDSAKDGNQEKERALLVKVQERYQGNQGDYDEYDQDETTPPPDPTAQTARPRLRQNQD", "values": [
      {"measurement": "cleaved bond", "setting": "[8]", "value": "cleaved upstream of this site at Lys21"},
      {"measurement": "cleaved bond", "setting": "[9]", "value": "cleaved by factor Xa at Arg16; also recorded: cleaved by factor Xa at Arg25"}
    ]},
    {"compound": "KPNLQSRSDDGVDESDYDTYPDDNNDDSGERNGGSEPAKPRLPVPGSGRDSERIPVPVD", "values": [
      {"measurement": "cleaved bond", "setting": "[7]", "value": "Arg41-Leu42, two hours"}
    ]}
  ]
}
